Test system: NOMO1
Experiment: cell viability relative to DMSO control; higher = less cytotoxic
Conditions: 48 h
Summary of the method: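 NOMO1 or SEM (500 cells/well) or P12-Ichikawa (1000 cells/well) leukemia cells were adapted for at least four passages in each medium. They were seeded in 1536-well plates (5 μl) and pin-dosed with library compounds in DMSO over an 11-point threefold series, 47 μM to 0.79 nM. CellTiter-Glo One luminescence was read after 48 h at 37°C. Viability is the per-plate percentage relative to DMSO wells, with cell-free wells as background.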

[1] = HPLM + 10% dialyzed FBS, 0.000781 µM
[2] = HPLM + 10% dialyzed FBS, 0.00234 µM
[3] = HPLM + 10% dialyzed FBS, 0.00702 µM
[4] = HPLM + 10% dialyzed FBS, 0.0211 µM
[5] = HPLM + 10% dialyzed FBS, 0.0632 µM
[6] = HPLM + 10% dialyzed FBS, 0.19 µM
[7] = HPLM + 10% dialyzed FBS, 0.569 µM
[8] = HPLM + 10% dialyzed FBS, 1.71 µM
[9] = HPLM + 10% dialyzed FBS, 5.12 µM
[10] = HPLM + 10% dialyzed FBS, 15.4 µM
[11] = HPLM + 10% dialyzed FBS, 46.1 µM
[12] = RPMI 5 mM glucose + 10% FBS, 0.000781 µM
[13] = RPMI 5 mM glucose + 10% FBS, 0.00234 µM
[14] = RPMI 5 mM glucose + 10% FBS, 0.00702 µM
[15] = RPMI 5 mM glucose + 10% FBS, 0.0211 µM
[16] = RPMI 5 mM glucose + 10% FBS, 0.0632 µM
[17] = RPMI 5 mM glucose + 10% FBS, 0.19 µM
[18] = RPMI 5 mM glucose + 10% FBS, 0.569 µM
[19] = RPMI 5 mM glucose + 10% FBS, 1.71 µM
[20] = RPMI 5 mM glucose + 10% FBS, 5.12 µM
[21] = RPMI 5 mM glucose + 10% FBS, 15.4 µM
[22] = RPMI 5 mM glucose + 10% FBS, 46.1 µM
[23] = RPMI 5 mM glucose + 10% dialyzed FBS, 0.000781 µM
[24] = RPMI 5 mM glucose + 10% dialyzed FBS, 0.00234 µM
[25] = RPMI 5 mM glucose + 10% dialyzed FBS, 0.00702 µM
[26] = RPMI 5 mM glucose + 10% dialyzed FBS, 0.0211 µM
[27] = RPMI 5 mM glucose + 10% dialyzed FBS, 0.0632 µM
[28] = RPMI 5 mM glucose + 10% dialyzed FBS, 0.19 µM
[29] = RPMI 5 mM glucose + 10% dialyzed FBS, 0.569 µM
[30] = RPMI 5 mM glucose + 10% dialyzed FBS, 1.71 µM
[31] = RPMI 5 mM glucose + 10% dialyzed FBS, 5.12 µM
[32] = RPMI 5 mM glucose + 10% dialyzed FBS, 15.4 µM
[33] = RPMI 5 mM glucose + 10% dialyzed FBS, 46.1 µM

SMILES | cell viability [1] [%] | cell viability [2] [%] | cell viability [3] [%] | cell viability [4] [%] | cell viability [5] [%] | cell viability [6] [%] | cell viability [7] [%] | cell viability [8] [%] | cell viability [9] [%] | cell viability [10] [%] | cell viability [11] [%] | cell viability [12] [%] | cell viability [13] [%] | cell viability [14] [%] | cell viability [15] [%] | cell viability [16] [%] | cell viability [17] [%] | cell viability [18] [%] | cell viability [19] [%] | cell viability [20] [%] | cell viability [21] [%] | cell viability [22] [%] | cell viability [23] [%] | cell viability [24] [%] | cell viability [25] [%] | cell viability [26] [%] | cell viability [27] [%] | cell viability [28] [%] | cell viability [29] [%] | cell viability [30] [%] | cell viability [31] [%] | cell viability [32] [%] | cell viability [33] [%]
N=C(N)c1ccc(OCCCCCOc2ccc(C(=N)N)cc2)cc1 | 111 | 105 | 113 | 121 | 130 | 133 | 104 | 104 | 110 | 75.8 | 46.6 | 100 | 114 | 113 | 108 | 113 | 92.2 | 116 | 107 | 93.6 | 84.8 | 47.7 | 91.6 | 101 | 121 | 115 | 114 | 107 | 108 | 98.6 | 98.3 | 70.6 | 49.2
CCCn1c(=O)c2[nH]c(-c3cnn(Cc4cccc(C(F)(F)F)c4)c3)nc2n(CC)c1=O | 111 | 113 | 102 | 125 | 115 | 116 | 96 | 82.4 | 64.1 | 56.4 | 43.5 | 92.7 | 93.1 | 101 | 103 | 103 | 105 | 102 | 98.8 | 82.7 | 69.8 | 61.5 | 98.6 | 104 | 92.1 | 81.6 | 105 | 103 | 85.3 | 80.6 | 76.9 | 65.2 | 44.7
CC(=O)SCC(Cc1ccccc1)C(=O)NCC(=O)OCc1ccccc1 (stereo unspecified) | 88.4 | 85.1 | 102 | 104 | 102 | 106 | 107 | 88.9 | 63.9 | 14.7 | 9.71 | 81.7 | 82.6 | 80.3 | 93.4 | 84.3 | 89.4 | 95.2 | 95 | 72.1 | 15.1 | 10.7 | 78.2 | 74.3 | 86.7 | 85.6 | 96.9 | 98.4 | 95.6 | 76.8 | 65.6 | 13.4 | 13.2
CC1=C(/C=C/C(C)=C/C=C/C(C)=C/C(=O)Nc2ccc(O)cc2)C(C)(C)CCC1 | 63.6 | 82.3 | 97.9 | 102 | 87.5 | 81.5 | 94.6 | 80.6 | 53.6 | 25.9 | 4.95 | 72.4 | 85.1 | 74.5 | 96.5 | 91 | 79.9 | 95 | 78.8 | 63 | 34 | 4.45 | 78 | 76.4 | 77.8 | 92.9 | 90.9 | 89.7 | 86 | 85.5 | 55.8 | 23.6 | 3.24
CC(Oc1ccc(O)cc1)(P(=O)(O)O)P(=O)(O)O | 94.2 | 115 | 91.7 | 92.8 | 99.5 | 93.5 | 91.3 | 85.8 | 103 | 42.6 | 17.3 | 91.6 | 88 | 87.4 | 83.7 | 94.8 | 101 | 90.4 | 85.7 | 78.5 | 73.7 | 14.6 | 94.8 | 100 | 87.9 | 93 | 84.9 | 95.8 | 92 | 91 | 83.9 | 64.8 | 14.4
CCOc1cc2c(c(F)c1OCC)C(=N)N(CC(=O)c1cc(N3CCOCC3)c(OC)c(C(C)(C)C)c1)C2 | 98.4 | 121 | 118 | 138 | 115 | 148 | 131 | 125 | 142 | 127 | 118 | 109 | 112 | 104 | 109 | 130 | 108 | 123 | 121 | 122 | 135 | 126 | 113 | 122 | 121 | 129 | 131 | 124 | 124 | 139 | 141 | 138 | 130
CC1(C)CC(=O)c2c(C(F)(F)F)nn(-c3ccc(C(N)=O)c(NC4CCC(OC(=O)CN)CC4)c3)c2C1 (stereo unspecified) | 94.8 | 92.8 | 104 | 99 | 102 | 84.5 | 27.3 | 17.8 | 13.5 | 17.5 | 15.7 | 92.5 | 110 | 92.4 | 92.9 | 84.2 | 88.9 | 20.6 | 11.2 | 9.75 | 9.88 | 11.1 | 94.4 | 103 | 109 | 93.2 | 89.2 | 76 | 21.3 | 15.8 | 13.4 | 14.1 | 15.9
CCCCCCCCCCCCCCCC(=O)OC[C@@H](NC(=O)C(Cl)Cl)[C@H](O)c1ccc([N+](=O)[O-])cc1 | 105 | 123 | 126 | 143 | 118 | 141 | 140 | 144 | 141 | 144 | 142 |  |  |  |  |  |  |  |  |  |  |  |  |  |  |  |  |  |  |  |  |  | 
CN1[C@@H]2CC(O)C[C@H]1[C@@H]1O[C@@H]12 (stereo partly specified) |  |  |  |  |  |  |  |  |  |  |  | 111 | 125 | 121 | 121 | 113 | 118 | 103 | 113 | 121 | 111 | 6.78 |  |  |  |  |  |  |  |  |  |  | 
Cn1cc(-c2ccc3ncc(Cc4ccc5ncccc5c4)n3n2)cn1 | 102 | 96.5 | 99.8 | 110 | 100 | 102 | 111 | 120 | 110 | 105 | 91.7 | 99.2 | 108 | 102 | 96.4 | 115 | 110 | 118 | 111 | 102 | 97.6 | 102 | 84.9 | 110 | 97.4 | 112 | 105 | 105 | 114 | 110 | 99 | 94.4 | 99.7
N#Cc1c(C2CCNCC2)cc(-c2c(O)cccc2OCC2CC2)nc1N | 110 | 116 | 126 | 115 | 103 | 113 | 121 | 104 | 105 | 90.1 | 99.1 | 102 | 115 | 104 | 118 | 111 | 104 | 113 | 102 | 93.6 | 88.4 | 80.9 | 115 | 101 | 117 | 116 | 111 | 105 | 117 | 104 | 94.2 | 88.3 | 74.4
CC(C)[C@@H](N(CCCN)C(=O)C1=CC=C(C)C=C1)C/2=C(\CC3=CC=CC=C3)C(=O)C4=C(O2)C=C(Cl)C=C4 | 47.8 | 38.1 | 34.7 | 35.9 | 40.9 | 45.8 | 34.9 | 36.3 | 32.5 | 40.7 | 4.73 | 20.1 | 26.5 | 29 | 26.4 | 21.9 | 29 | 21.1 | 23.9 | 27.2 | 31.7 | 7.48 | 48.7 | 34.7 | 29.5 | 30.9 | 35.1 | 34.6 | 27.2 | 32.8 | 29.6 | 33.5 | 5.92
CC1=CC2=C(O1)C(=C3OC(=O)\C=C(C)/C3=C2)C | 79.8 | 98.7 | 90.9 | 114 | 104 | 123 | 125 | 121 | 95.2 | 124 | 116 | 114 | 102 | 112 | 115 | 125 | 108 | 114 | 102 | 113 | 106 | 106 | 91.2 | 92.2 | 99.8 | 102 | 107 | 98 | 112 | 105 | 114 | 102 | 114
COc1ccc(CCC(=O)Nc2nc3ccc(Cl)cc3s2)cc1OC | 120 | 106 | 111 | 135 | 122 | 126 | 123 | 101 | 106 | 122 | 86.2 | 107 | 104 | 113 | 105 | 122 | 117 | 113 | 94.4 | 105 | 100 | 96.6 | 114 | 99.3 | 119 | 108 | 120 | 110 | 106 | 102 | 104 | 98.2 | 91.2
COc1ccc([C@@H]2CNC(=O)C2)cc1OC1CCCC1 | 106 | 108 | 108 | 111 | 117 | 114 | 136 | 114 | 117 | 118 | 116 | 112 | 111 | 106 | 96.7 | 114 | 107 | 104 | 112 | 99.7 | 105 | 107 | 92.6 | 101 | 119 | 105 | 114 | 115 | 105 | 115 | 112 | 105 | 119
CCCn1c(=O)c2[nH]c(C34CC5CC3C[C@@H](C5)C4)nc2n(CCC)c1=O | 105 | 62.9 | 92.9 | 112 | 96.2 | 125 | 104 | 105 | 107 | 99.5 | 114 | 90.5 | 92.6 | 102 | 96.5 | 87.4 | 91.5 | 86.5 | 97.2 | 90.3 | 89.9 | 95.5 | 99 | 89.2 | 92.9 | 95.5 | 107 | 98.2 | 94.3 | 95.6 | 101 | 94.8 | 100
COc1cc2c(NC3CCN(C(C)C)CC3)nc(C3CCCCC3)nc2cc1OCCCN1CCCC1 | 120 | 133 | 123 | 118 | 142 | 128 | 118 | 130 | 111 | 102 | 9.5 | 107 | 117 | 114 | 129 | 117 | 130 | 134 | 114 | 118 | 115 | 18.2 |  |  |  |  |  |  |  |  |  |  | 

Reference: the supplement of paper PMC11451515
